Laboratory results reported in patent US9340590B2 (priority 2011, dated 2016).
Positions of bridges follow the written chain, without caps; N, C: chain ends. Residues, ends and D or L forms follow the SMILES beside them.

Tests used:
Assay in all cases: cell-based
hNav1.7 = hNav1.7 (Homo sapiens, UniProt Q15858); format: cell-based; settings: IonWorks Quattro, use-dependent block, hNav1.7; read-out: IWQ Use Nav1.7
hNav1.5 = hNav1.5 (Homo sapiens, UniProt Q14524); settings: IonWorks Quattro, use-dependent block, hNav1.5; read-out: IWQ Use Nav1.5
hNav1.3 = hNav1.3 (Homo sapiens, UniProt Q9NY46); settings: IonWorks Quattro, use-dependent block, hNav1.3; read-out: IWQ Use Nav1.3
hNav1.3, sequence (Q9NY46 whole entry, looked up): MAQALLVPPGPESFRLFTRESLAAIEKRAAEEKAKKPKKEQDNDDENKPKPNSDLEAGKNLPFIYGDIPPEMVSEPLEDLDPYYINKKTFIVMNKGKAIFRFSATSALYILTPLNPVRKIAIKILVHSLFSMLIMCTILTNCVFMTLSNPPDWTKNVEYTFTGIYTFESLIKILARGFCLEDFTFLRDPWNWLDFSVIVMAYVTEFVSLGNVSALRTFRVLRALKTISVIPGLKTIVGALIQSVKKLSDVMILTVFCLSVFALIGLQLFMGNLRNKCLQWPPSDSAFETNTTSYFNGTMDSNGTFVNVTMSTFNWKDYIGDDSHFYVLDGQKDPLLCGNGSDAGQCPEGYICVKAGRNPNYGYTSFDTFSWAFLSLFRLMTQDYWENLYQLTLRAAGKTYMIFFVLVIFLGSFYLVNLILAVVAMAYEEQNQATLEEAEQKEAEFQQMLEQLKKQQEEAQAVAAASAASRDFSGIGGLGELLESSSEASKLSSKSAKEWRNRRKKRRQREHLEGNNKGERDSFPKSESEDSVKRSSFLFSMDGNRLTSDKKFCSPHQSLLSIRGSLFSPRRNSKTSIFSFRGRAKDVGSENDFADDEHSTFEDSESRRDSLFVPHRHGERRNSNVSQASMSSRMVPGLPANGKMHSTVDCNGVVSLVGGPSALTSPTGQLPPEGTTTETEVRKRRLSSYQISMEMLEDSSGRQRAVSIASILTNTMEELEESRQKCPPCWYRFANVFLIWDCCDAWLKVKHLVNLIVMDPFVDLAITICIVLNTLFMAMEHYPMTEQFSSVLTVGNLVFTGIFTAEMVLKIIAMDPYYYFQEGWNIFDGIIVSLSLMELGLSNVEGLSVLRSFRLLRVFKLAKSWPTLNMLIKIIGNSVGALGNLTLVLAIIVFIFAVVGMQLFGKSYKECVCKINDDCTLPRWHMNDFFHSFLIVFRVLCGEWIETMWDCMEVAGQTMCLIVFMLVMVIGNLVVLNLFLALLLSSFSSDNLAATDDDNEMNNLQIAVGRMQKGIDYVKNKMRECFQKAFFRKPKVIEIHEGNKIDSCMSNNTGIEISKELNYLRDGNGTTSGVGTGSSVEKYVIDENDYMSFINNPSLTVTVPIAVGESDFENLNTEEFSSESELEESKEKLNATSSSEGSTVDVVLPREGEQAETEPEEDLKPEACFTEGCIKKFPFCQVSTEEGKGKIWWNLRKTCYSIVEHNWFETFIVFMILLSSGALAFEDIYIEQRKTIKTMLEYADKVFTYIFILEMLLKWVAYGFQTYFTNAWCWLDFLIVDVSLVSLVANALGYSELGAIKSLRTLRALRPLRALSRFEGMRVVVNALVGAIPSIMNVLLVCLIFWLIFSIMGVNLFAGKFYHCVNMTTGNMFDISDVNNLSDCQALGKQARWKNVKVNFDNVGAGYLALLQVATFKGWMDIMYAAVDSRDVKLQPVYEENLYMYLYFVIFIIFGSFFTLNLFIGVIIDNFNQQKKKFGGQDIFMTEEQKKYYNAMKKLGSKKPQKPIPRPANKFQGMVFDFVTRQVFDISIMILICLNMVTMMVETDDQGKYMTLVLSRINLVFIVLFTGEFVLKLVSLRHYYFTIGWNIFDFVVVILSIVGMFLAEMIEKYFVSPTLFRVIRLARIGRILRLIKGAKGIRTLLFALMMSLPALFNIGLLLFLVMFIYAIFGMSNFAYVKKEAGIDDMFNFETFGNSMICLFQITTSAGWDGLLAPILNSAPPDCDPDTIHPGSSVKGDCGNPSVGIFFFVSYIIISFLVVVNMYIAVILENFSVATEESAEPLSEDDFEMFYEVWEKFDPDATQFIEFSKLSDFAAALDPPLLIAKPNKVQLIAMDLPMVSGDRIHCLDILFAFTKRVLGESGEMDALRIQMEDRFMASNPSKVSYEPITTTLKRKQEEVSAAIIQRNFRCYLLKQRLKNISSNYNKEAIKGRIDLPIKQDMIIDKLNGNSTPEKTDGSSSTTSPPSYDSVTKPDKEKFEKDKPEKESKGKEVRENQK

hNav1.7, sequence (Q15858 whole entry, looked up): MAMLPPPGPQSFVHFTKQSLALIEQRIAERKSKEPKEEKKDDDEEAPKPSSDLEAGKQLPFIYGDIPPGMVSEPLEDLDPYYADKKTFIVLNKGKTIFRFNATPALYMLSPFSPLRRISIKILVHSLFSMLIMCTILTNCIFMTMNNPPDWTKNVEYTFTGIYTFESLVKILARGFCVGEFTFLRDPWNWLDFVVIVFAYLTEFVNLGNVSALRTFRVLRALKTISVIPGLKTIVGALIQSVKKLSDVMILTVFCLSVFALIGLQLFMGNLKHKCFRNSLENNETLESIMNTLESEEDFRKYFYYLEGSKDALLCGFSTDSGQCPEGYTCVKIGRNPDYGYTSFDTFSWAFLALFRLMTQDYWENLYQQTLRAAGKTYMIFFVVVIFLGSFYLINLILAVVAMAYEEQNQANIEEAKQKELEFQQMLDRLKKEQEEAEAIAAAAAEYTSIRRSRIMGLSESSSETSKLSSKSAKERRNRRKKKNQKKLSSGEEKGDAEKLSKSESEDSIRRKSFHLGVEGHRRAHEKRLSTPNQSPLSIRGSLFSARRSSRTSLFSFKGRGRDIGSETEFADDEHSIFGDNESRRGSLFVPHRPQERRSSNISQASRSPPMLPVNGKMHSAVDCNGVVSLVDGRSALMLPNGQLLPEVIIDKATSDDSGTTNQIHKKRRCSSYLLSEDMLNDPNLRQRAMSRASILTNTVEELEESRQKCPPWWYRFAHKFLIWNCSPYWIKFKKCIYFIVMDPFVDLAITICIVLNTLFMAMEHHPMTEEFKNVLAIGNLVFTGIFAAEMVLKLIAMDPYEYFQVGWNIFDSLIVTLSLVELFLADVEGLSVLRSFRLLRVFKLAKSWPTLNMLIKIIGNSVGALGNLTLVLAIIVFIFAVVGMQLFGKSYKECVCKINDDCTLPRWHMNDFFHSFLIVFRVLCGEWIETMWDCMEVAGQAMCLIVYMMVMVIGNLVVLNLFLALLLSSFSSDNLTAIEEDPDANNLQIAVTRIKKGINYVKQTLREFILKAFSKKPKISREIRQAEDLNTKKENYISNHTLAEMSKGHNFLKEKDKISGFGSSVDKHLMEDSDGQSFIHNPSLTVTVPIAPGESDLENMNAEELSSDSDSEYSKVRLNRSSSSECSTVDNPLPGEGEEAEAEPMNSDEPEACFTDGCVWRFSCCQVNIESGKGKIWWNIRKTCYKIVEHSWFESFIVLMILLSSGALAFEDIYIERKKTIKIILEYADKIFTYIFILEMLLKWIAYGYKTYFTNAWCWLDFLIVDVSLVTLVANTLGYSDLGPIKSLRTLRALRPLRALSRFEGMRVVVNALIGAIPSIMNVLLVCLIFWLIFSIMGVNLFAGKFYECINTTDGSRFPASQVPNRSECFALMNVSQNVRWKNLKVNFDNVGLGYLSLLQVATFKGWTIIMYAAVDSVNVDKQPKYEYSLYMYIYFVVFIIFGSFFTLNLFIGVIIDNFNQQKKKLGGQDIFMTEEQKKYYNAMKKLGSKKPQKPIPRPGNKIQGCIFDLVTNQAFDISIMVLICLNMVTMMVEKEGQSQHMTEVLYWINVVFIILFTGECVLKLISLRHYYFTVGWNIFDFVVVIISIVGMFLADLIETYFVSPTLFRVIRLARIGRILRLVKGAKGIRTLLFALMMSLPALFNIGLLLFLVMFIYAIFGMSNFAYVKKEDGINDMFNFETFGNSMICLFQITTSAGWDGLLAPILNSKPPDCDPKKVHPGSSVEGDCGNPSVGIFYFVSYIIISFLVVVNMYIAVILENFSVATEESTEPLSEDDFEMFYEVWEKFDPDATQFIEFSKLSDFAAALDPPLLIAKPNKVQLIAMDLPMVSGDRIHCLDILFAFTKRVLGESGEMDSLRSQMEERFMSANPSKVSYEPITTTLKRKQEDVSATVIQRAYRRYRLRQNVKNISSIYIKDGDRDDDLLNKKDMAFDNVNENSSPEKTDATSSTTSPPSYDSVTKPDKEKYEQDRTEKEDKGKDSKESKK

| Compound | IC50 (hNav1.7) [µM] | IC50 (hNav1.5) [µM] | IC50 (hNav1.3) [µM] |
| --- | --- | --- | --- |
| CC[C@H](C)[C@@H]1NC(=O)[C@@H]2CSSC[C@@H]3NC(=O)[C@H](C(C)C)NC(=O)[C@H](CC(C)C)NC(=O)[C@H](CC(N)=O)NC(=O)[C@@H]4CCCN4C(=O)[C@H](CCCNC(=N)N)NC(=O)[C@H](CSSC[C@H](NC(=O)[C@@H](N)CC(=O)O)C(=O)N[C@@H](CC(C)C)C(=O)NCC(=O)N[C@@H](C)C(=O)N[C@@H](Cc4ccccc4)C(=O)N[C@@H](CCCNC(=N)N)C(=O)N[C@@H](CCCCN)C(=O)N2)NC(=O)[C@H](CSSC[C@@H](C(=O)N[C@@H](CCCCN)C(=O)N[C@@H](Cc2ccc(O)cc2)C(=O)N[C@H](C(=O)N[C@@H](Cc2ccccc2)C(=O)O)C(C)C)NC(=O)[C@H](Cc2c[nH]c4ccccc24)NC(=O)[C@H](CCSC)NC(=O)[C@H](Cc2c[nH]cn2)NC(=O)[C@H]([C@@H](C)O)NC(=O)[C@H](CCCNC(=N)N)NC(=O)[C@H](CO)NC3=O)NC(=O)[C@H](CCCCN)NC(=O)[C@H](CC(=O)O)NC(=O)[C@H](CC(N)=O)NC(=O)[C@H](CC(=O)O)NC(=O)[C@@H]2CCCN2C1=O [compound 831] (H-DCLGAFRKCIPDNDKCCRPNLVCSRTHMWCKYVF-OH; disulfide 2-17, 9-23, 16-30) | > 5 | > 5 | 1.6 |
| CC[C@H](C)[C@@H]1NC(=O)[C@@H]2CSSC[C@@H]3NC(=O)[C@H](C(C)C)NC(=O)[C@H](CC(C)C)NC(=O)[C@H](CC(N)=O)NC(=O)[C@@H]4CCCN4C(=O)[C@H](CCCNC(=N)N)NC(=O)[C@H](CSSC[C@H](NC(=O)[C@@H](N)CC(=O)O)C(=O)N[C@@H](CC(C)C)C(=O)NCC(=O)N[C@@H](C)C(=O)N[C@@H](Cc4ccccc4)C(=O)N[C@@H](CCCNC(=N)N)C(=O)N[C@@H](CCCCN)C(=O)N2)NC(=O)[C@H](CSSC[C@@H](C(=O)N[C@@H](CCCCN)C(=O)N[C@@H](Cc2ccc(O)cc2)C(=O)N[C@H](C(=O)N[C@@H](Cc2ccccc2)C(=O)O)C(C)C)NC(=O)[C@H](Cc2c[nH]c4ccccc24)NC(=O)[C@H](CC(N)=O)NC(=O)[C@H](Cc2c[nH]cn2)NC(=O)[C@H]([C@@H](C)O)NC(=O)[C@H](CCCNC(=N)N)NC(=O)[C@H](CO)NC3=O)NC(=O)[C@H](CCCCN)NC(=O)[C@H](CC(=O)O)NC(=O)[C@H](CC(N)=O)NC(=O)[C@H](CC(=O)O)NC(=O)[C@@H]2CCCN2C1=O [compound 832] (H-DCLGAFRKCIPDNDKCCRPNLVCSRTHNWCKYVF-OH; disulfide 2-17, 9-23, 16-30) | > 5 | > 5 | 4.6 |
| CC[C@H](C)[C@@H]1NC(=O)[C@@H]2CSSC[C@@H]3NC(=O)[C@H](C(C)C)NC(=O)[C@H](CC(C)C)NC(=O)[C@H](CC(N)=O)NC(=O)[C@@H]4CCCN4C(=O)[C@H](CCCNC(=N)N)NC(=O)[C@H](CSSC[C@H](NC(=O)[C@@H](N)CC(=O)O)C(=O)N[C@@H](CC(C)C)C(=O)NCC(=O)N[C@@H](C)C(=O)N[C@@H](Cc4ccccc4)C(=O)N[C@@H](CCCNC(=N)N)C(=O)N[C@@H](CCCCN)C(=O)N2)NC(=O)[C@H](CSSC[C@@H](C(=O)N[C@@H](CCCCN)C(=O)N[C@@H](Cc2ccc(O)cc2)C(=O)N[C@H](C(=O)N[C@@H](Cc2ccccc2)C(=O)O)C(C)C)NC(=O)[C@H](Cc2c[nH]c4ccccc24)NC(=O)[C@@H]2CCCN2C(=O)[C@H](Cc2c[nH]cn2)NC(=O)[C@H]([C@@H](C)O)NC(=O)[C@H](CCCNC(=N)N)NC(=O)[C@H](CO)NC3=O)NC(=O)[C@H](CCCCN)NC(=O)[C@H](CC(=O)O)NC(=O)[C@H](CC(N)=O)NC(=O)[C@H](CC(=O)O)NC(=O)[C@@H]2CCCN2C1=O [compound 833] (H-DCLGAFRKCIPDNDKCCRPNLVCSRTHPWCKYVF-OH; disulfide 2-17, 9-23, 16-30) | > 5 | > 5 | > 5 |
| CC[C@H](C)[C@@H]1NC(=O)[C@@H]2CSSC[C@@H]3NC(=O)[C@H](C(C)C)NC(=O)[C@H](CC(C)C)NC(=O)[C@H](CC(N)=O)NC(=O)[C@@H]4CCCN4C(=O)[C@H](CCCNC(=N)N)NC(=O)[C@H](CSSC[C@H](NC(=O)[C@@H](N)CC(=O)O)C(=O)N[C@@H](CC(C)C)C(=O)NCC(=O)N[C@@H](C)C(=O)N[C@@H](Cc4ccccc4)C(=O)N[C@@H](CCCNC(=N)N)C(=O)N[C@@H](CCCCN)C(=O)N2)NC(=O)[C@H](CSSC[C@@H](C(=O)N[C@@H](CCCCN)C(=O)N[C@@H](Cc2ccc(O)cc2)C(=O)N[C@H](C(=O)N[C@@H](Cc2ccccc2)C(=O)O)C(C)C)NC(=O)[C@H](Cc2c[nH]c4ccccc24)NC(=O)[C@H](CCC(N)=O)NC(=O)[C@H](Cc2c[nH]cn2)NC(=O)[C@H]([C@@H](C)O)NC(=O)[C@H](CCCNC(=N)N)NC(=O)[C@H](CO)NC3=O)NC(=O)[C@H](CCCCN)NC(=O)[C@H](CC(=O)O)NC(=O)[C@H](CC(N)=O)NC(=O)[C@H](CC(=O)O)NC(=O)[C@@H]2CCCN2C1=O [compound 834] (H-DCLGAFRKCIPDNDKCCRPNLVCSRTHQWCKYVF-OH; disulfide 2-17, 9-23, 16-30) | > 5 | > 5 | 3.9 |
| CC[C@H](C)[C@@H]1NC(=O)[C@@H]2CSSC[C@@H]3NC(=O)[C@H](C(C)C)NC(=O)[C@H](CC(C)C)NC(=O)[C@H](CC(N)=O)NC(=O)[C@@H]4CCCN4C(=O)[C@H](CCCNC(=N)N)NC(=O)[C@H](CSSC[C@H](NC(=O)[C@@H](N)CC(=O)O)C(=O)N[C@@H](CC(C)C)C(=O)NCC(=O)N[C@@H](C)C(=O)N[C@@H](Cc4ccccc4)C(=O)N[C@@H](CCCNC(=N)N)C(=O)N[C@@H](CCCCN)C(=O)N2)NC(=O)[C@H](CSSC[C@@H](C(=O)N[C@@H](CCCCN)C(=O)N[C@@H](Cc2ccc(O)cc2)C(=O)N[C@H](C(=O)N[C@@H](Cc2ccccc2)C(=O)O)C(C)C)NC(=O)[C@H](Cc2c[nH]c4ccccc24)NC(=O)[C@H](CO)NC(=O)[C@H](Cc2c[nH]cn2)NC(=O)[C@H]([C@@H](C)O)NC(=O)[C@H](CCCNC(=N)N)NC(=O)[C@H](CO)NC3=O)NC(=O)[C@H](CCCCN)NC(=O)[C@H](CC(=O)O)NC(=O)[C@H](CC(N)=O)NC(=O)[C@H](CC(=O)O)NC(=O)[C@@H]2CCCN2C1=O [compound 835] (H-DCLGAFRKCIPDNDKCCRPNLVCSRTHSWCKYVF-OH; disulfide 2-17, 9-23, 16-30) | > 5 | > 5 | > 5 |
| CC[C@H](C)[C@@H]1NC(=O)[C@@H]2CSSC[C@@H]3NC(=O)[C@H](C(C)C)NC(=O)[C@H](CC(C)C)NC(=O)[C@H](CC(N)=O)NC(=O)[C@@H]4CCCN4C(=O)[C@H](CCCNC(=N)N)NC(=O)[C@H](CSSC[C@H](NC(=O)[C@@H](N)CC(=O)O)C(=O)N[C@@H](CC(C)C)C(=O)NCC(=O)N[C@@H](C)C(=O)N[C@@H](Cc4ccccc4)C(=O)N[C@@H](CCCNC(=N)N)C(=O)N[C@@H](CCCCN)C(=O)N2)NC(=O)[C@H](CSSC[C@@H](C(=O)N[C@@H](CCCCN)C(=O)N[C@@H](Cc2ccc(O)cc2)C(=O)N[C@H](C(=O)N[C@@H](Cc2ccccc2)C(=O)O)C(C)C)NC(=O)[C@H](Cc2c[nH]c4ccccc24)NC(=O)[C@H](CCCNC(=N)N)NC(=O)[C@H](Cc2c[nH]cn2)NC(=O)[C@H]([C@@H](C)O)NC(=O)[C@H](CCCNC(=N)N)NC(=O)[C@H](CO)NC3=O)NC(=O)[C@H](CCCCN)NC(=O)[C@H](CC(=O)O)NC(=O)[C@H](C)NC(=O)[C@H](CC(=O)O)NC(=O)[C@@H]2CCCN2C1=O [compound 836] (H-DCLGAFRKCIPDADKCCRPNLVCSRTHRWCKYVF-OH; disulfide 2-17, 9-23, 16-30) | 4.1 | > 5 | 1.3 |
| CC[C@H](C)[C@@H]1NC(=O)[C@@H]2CSSC[C@@H]3NC(=O)[C@H](C(C)C)NC(=O)[C@H](CC(C)C)NC(=O)[C@H](CC(N)=O)NC(=O)[C@@H]4CCCN4C(=O)[C@H](CCCNC(=N)N)NC(=O)[C@H](CSSC[C@H](NC(=O)[C@@H](N)CC(=O)O)C(=O)N[C@@H](CC(C)C)C(=O)NCC(=O)N[C@@H](C)C(=O)N[C@@H](Cc4ccccc4)C(=O)N[C@@H](CCCNC(=N)N)C(=O)N[C@@H](CCCCN)C(=O)N2)NC(=O)[C@H](CSSC[C@@H](C(=O)N[C@@H](CCCCN)C(=O)N[C@@H](Cc2ccc(O)cc2)C(=O)N[C@H](C(=O)N[C@@H](Cc2ccccc2)C(=O)O)C(C)C)NC(=O)[C@H](Cc2c[nH]c4ccccc24)NC(=O)[C@H](CCCNC(=N)N)NC(=O)[C@H](Cc2c[nH]cn2)NC(=O)[C@H]([C@@H](C)O)NC(=O)[C@H](CCCNC(=N)N)NC(=O)[C@H](CO)NC3=O)NC(=O)[C@H](CCCCN)NC(=O)[C@H](CC(=O)O)NC(=O)[C@H](CC(=O)O)NC(=O)[C@H](CC(=O)O)NC(=O)[C@@H]2CCCN2C1=O [compound 837] | > 5 | > 5 | 2.3 |
| CC[C@H](C)[C@@H]1NC(=O)[C@@H]2CSSC[C@@H]3NC(=O)[C@H](C(C)C)NC(=O)[C@H](CC(C)C)NC(=O)[C@H](CC(N)=O)NC(=O)[C@@H]4CCCN4C(=O)[C@H](CCCNC(=N)N)NC(=O)[C@H](CSSC[C@H](NC(=O)[C@@H](N)CC(=O)O)C(=O)N[C@@H](CC(C)C)C(=O)NCC(=O)N[C@@H](C)C(=O)N[C@@H](Cc4ccccc4)C(=O)N[C@@H](CCCNC(=N)N)C(=O)N[C@@H](CCCCN)C(=O)N2)NC(=O)[C@H](CSSC[C@@H](C(=O)N[C@@H](CCCCN)C(=O)N[C@@H](Cc2ccc(O)cc2)C(=O)N[C@H](C(=O)N[C@@H](Cc2ccccc2)C(=O)O)C(C)C)NC(=O)[C@H](Cc2c[nH]c4ccccc24)NC(=O)[C@H](CCCNC(=N)N)NC(=O)[C@H](Cc2c[nH]cn2)NC(=O)[C@H]([C@@H](C)O)NC(=O)[C@H](CCCNC(=N)N)NC(=O)[C@H](CO)NC3=O)NC(=O)[C@H](CCCCN)NC(=O)[C@H](CC(=O)O)NC(=O)[C@H](CCC(=O)O)NC(=O)[C@H](CC(=O)O)NC(=O)[C@@H]2CCCN2C1=O [compound 838] | > 5 | > 5 | 1.9 |
